Active and inactive are the calls of the source.

The nature of test [1]: cells. The format is functional, cell-based.
For test [2], the target named is Protein Tat (Human immunodeficiency virus type 1 group M subtype B (isolate HXB2)(HIV-1), UniProt P04608). The format is functional.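 Note: tat binding to TAR RNA read out by fluorescence polarization.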
The nature of test [3]: cells. The format is functional, cell-based. The source holds these as a separate data set.
Test [4] deals with Mitogen-activated protein kinase 10 (Homo sapiens, UniProt P53779). Briefly: Dose response biochemical screening assay for inhibitors of c-Jun N-Terminal Kinase 3 (JNK3). [Related pubchem assays: 746 ].
A short description of test [5]: inhibitors of intracellular T. cruzi replication, confirmation, NIH3T3 host cells, beta-gal luminescence (AID 2044).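 Note: intracellular parasites grown in NIH/3T3 mouse fibroblasts as host cells; luminescent beta-galactosidase reporter signal from transgenic T. cruzi replicating inside host cells; inhibitors lower the luminescence signal.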 The format is functional, cell-based.
For test [6], the target named is Heat shock protein HSP 90-alpha (Homo sapiens, UniProt P07900). Briefly: Luminescence-based dose response biochemical high throughput screening assay for inhibitors of the Heat Shock Protein 90 (HSP90). [Related pubchem assays: 1831 (Summary AID.), 1846 (Confirmation screen.), 1789 (Primary screen.)].
The nature of test [7]: THP-1 cell cytotoxicity, dose response, cytotoxicity control for non-replicating M. tuberculosis project (AID 489025). The format is functional.
A short description of test [8]: cells. The format is functional.
A short description of test [9]: cytotoxicity toward NIH3T3 fibroblasts, dose response, counter-screen, cell-based, ATP luminescence, mouse fibroblasts (AID 2010).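 Note: cells exposed to compound for about 90 hours before reading.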 The format is functional. Background: A counterscreen serves to expose hits that act by an unwanted route or on another target.
A short description of test [10]: microbe, parasite or virus in culture. The format is functional. To be noted: Mycobacterium tuberculosis.
Test [11] addresses T1, Heat shock factor protein 1 (Mus musculus, UniProt P38532).
T1 sequence (P38532 whole entry): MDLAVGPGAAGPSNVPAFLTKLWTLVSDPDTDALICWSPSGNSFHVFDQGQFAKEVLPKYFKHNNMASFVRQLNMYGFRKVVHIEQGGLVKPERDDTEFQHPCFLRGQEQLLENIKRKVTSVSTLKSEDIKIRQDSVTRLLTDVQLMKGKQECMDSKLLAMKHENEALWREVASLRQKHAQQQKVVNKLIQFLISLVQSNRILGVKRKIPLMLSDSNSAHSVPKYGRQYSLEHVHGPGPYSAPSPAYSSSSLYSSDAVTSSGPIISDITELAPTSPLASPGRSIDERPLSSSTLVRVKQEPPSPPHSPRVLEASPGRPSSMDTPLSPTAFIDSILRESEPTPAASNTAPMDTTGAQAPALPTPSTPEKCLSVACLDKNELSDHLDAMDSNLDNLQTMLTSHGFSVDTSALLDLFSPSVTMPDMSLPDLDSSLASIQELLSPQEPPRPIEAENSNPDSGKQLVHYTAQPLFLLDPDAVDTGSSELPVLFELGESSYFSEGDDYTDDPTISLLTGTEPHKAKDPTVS
Briefly: inhibition of MG132-induced HSE-luciferase signal, confirmation, cell-based, NIH3T3, luminescence, dose retest (AID 2382).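 Note: NIH3T3 fibroblasts with HSF1-driven luciferase reporter stressed by proteasome inhibitor MG132; luminescence from HSF1-driven luciferase expression after 8 hours of MG132 stress.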 The format is functional.

A short description of test [12]: inhibitors of Vif binding to APOBEC3G peptide, primary screen, biochemical, TR-FRET, GST-Vif 1-94, biotin-A3G peptide, dose response retest (AID 1117319).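 Note: TR-FRET signal of purified GST-Vif binding a biotinylated A3G peptide; inhibitors lower the FRET signal by blocking Vif and A3G binding.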 The format is functional. Background: TR-FRET usually uses a lanthanide donor and a delayed reading to cut background.
A short description of test [13]: Vero cell cytotoxicity, dose response, cytotoxicity control for Vif-APOBEC3G degradation inhibitor project, Vero cells (AID 1117358). The format is functional. To be noted: Human immunodeficiency virus 1, Vero.
For test [14], the target named is 72 kDa type IV collagenase (Homo sapiens, UniProt P08253). Briefly: Dose Response validation of uHTS RPN11 inhibitor hits using a MMP-2 Fluorescence assay. The format is functional.
Test [15] deals with T2, Replicative DNA helicase DnaB (Mycobacterium tuberculosis, UniProt P9WMR3).
T2 sequence (P9WMR3 whole entry): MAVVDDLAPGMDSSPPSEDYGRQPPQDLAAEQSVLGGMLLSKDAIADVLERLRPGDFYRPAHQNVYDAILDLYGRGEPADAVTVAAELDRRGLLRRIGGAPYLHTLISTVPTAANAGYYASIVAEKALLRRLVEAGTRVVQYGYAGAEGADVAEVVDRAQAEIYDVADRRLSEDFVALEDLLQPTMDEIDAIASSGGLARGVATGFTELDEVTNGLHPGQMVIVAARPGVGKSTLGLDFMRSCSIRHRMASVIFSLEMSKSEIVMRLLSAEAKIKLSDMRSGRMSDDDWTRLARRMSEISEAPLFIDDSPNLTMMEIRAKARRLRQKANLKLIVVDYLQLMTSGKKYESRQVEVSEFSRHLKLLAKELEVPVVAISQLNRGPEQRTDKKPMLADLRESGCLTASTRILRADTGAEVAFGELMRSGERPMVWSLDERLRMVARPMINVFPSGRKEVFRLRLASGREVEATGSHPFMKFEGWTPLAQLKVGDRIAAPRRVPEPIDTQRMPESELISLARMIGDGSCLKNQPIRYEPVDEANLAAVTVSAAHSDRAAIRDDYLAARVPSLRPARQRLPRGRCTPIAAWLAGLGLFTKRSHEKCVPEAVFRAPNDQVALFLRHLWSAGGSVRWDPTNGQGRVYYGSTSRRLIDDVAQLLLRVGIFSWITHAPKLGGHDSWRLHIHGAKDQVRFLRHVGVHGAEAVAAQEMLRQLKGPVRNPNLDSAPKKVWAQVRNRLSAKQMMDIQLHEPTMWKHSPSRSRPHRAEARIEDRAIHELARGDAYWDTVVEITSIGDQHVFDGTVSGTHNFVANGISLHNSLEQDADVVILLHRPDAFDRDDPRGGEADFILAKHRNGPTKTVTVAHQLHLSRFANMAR
Kind of test: DnaB intein splicing inhibitors, dose response, biochemical, cell-free fluorescence (AID 449749). The format is functional.

Test [16] deals with Large T antigen (Simian virus 40, UniProt P03070). The format is functional, Betapolyomavirus macacae.
Test [17] deals with Nonstructural protein 1 (Influenza A virus, UniProt Q194T2). The format is functional, Influenza A virus (A/California/07/2009(H1N1)).
Test [18] can be described thus: THP-1 cell cytotoxicity, dose response, cytotoxicity control for Vif-APOBEC3G degradation inhibitor project, THP-1 cells (AID 1117359). The format is functional. To be noted: Human immunodeficiency virus 1, THP-1.
Test [19] deals with T3, Aminopeptidase N (Plasmodium falciparum FcB1/Columbia, UniProt O96935).
T3 sequence (O96935 whole entry): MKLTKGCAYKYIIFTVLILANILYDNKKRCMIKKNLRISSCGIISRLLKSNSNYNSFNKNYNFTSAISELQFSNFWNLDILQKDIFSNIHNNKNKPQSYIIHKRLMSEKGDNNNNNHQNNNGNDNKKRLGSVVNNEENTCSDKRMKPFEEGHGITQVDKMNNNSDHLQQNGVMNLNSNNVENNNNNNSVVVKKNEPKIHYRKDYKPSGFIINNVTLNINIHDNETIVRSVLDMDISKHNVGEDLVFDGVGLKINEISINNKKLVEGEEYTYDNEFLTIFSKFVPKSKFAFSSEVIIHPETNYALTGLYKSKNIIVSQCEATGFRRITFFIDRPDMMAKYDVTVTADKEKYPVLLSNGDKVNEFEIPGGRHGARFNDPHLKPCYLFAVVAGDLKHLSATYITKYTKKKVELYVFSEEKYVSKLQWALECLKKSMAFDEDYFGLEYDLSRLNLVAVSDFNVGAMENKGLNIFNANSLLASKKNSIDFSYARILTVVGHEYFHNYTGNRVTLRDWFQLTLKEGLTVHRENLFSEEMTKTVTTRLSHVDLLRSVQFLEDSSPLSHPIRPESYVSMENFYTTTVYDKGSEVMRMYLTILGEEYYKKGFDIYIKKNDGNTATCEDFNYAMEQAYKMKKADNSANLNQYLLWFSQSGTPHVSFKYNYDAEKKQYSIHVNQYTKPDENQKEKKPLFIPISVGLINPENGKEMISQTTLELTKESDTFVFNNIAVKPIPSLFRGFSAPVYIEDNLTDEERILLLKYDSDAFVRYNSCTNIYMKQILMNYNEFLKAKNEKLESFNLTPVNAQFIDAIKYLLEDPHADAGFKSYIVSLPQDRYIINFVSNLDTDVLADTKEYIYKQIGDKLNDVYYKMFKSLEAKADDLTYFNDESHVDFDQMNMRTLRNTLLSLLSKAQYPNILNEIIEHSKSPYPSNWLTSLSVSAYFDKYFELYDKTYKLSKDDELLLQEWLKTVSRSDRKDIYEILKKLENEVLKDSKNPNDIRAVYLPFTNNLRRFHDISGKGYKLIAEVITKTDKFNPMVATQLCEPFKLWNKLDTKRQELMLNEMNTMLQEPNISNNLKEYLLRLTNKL
Kind of test: P. falciparum M1AAP inhibitors, biochemical, fluorogenic H-Leu-NHMec substrate, 1536-well (AID 1445). On the set-up: species or system Plasmodium falciparum 3D7, 3D7.

In test [20] the target is T4, Protein RecA (Mycobacterium tuberculosis, UniProt P9WHJ3).
T4 sequence (P9WHJ3 whole entry): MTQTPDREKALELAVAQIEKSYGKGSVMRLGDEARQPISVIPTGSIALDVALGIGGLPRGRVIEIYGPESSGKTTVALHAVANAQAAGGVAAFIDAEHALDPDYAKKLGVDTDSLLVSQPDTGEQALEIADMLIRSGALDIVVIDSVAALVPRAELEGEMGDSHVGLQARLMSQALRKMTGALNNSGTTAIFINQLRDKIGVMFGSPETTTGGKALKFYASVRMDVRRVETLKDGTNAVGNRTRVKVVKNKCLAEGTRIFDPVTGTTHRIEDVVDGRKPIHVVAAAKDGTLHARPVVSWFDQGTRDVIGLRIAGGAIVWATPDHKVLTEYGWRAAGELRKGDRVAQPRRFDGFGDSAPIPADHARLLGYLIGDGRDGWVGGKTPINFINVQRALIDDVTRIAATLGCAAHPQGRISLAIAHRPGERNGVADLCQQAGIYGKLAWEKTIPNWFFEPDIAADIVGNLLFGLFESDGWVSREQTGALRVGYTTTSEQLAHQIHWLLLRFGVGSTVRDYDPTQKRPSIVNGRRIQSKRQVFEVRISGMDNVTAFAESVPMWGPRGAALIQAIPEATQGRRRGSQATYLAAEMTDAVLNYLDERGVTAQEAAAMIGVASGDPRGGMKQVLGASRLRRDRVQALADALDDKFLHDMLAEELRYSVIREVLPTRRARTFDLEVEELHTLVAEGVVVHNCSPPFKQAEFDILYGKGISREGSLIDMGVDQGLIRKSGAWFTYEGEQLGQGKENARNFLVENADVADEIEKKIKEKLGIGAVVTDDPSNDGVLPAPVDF
Briefly: Fluorescence Cell-Free Homogeneous Dose Retest to Identify Inhibitors of RecA-Intein Splicing Activity. [Related pubchem assays (depositor defined):AID2097, AID2223, AID489010, AID492950]. The format is functional.

For test [21], the target named is Prothrombin (Bos taurus, UniProt P00735). Briefly: thrombin inhibition, dose response, biochemical, fluorescence polarization, uHTS hits (AID 602369). The format is functional.
For test [22], the target named is 26S proteasome non-ATPase regulatory subunit 14 (Homo sapiens, UniProt O00487). Kind of test: inhibition of proteasome subunit RPN11 – biochemical, fluorescence polarization, uHTS hits, confirmation (AID 602368). The format is functional. (In general: Polarisation of emitted light reports the rotation of a fluorescent probe.)
The target in test [23] is Matrix metalloproteinase-14 (Homo sapiens, UniProt P50281). Kind of test: Dose Response confirmation of uHTS hits for a small molecule inhibitors of MT1-MMP activation in a fluorescence assay set 1. The format is functional.
In test [24] the target is T5, Low molecular weight phosphotyrosine protein phosphatase (Homo sapiens, UniProt P24666).
T5 sequence (P24666 whole entry): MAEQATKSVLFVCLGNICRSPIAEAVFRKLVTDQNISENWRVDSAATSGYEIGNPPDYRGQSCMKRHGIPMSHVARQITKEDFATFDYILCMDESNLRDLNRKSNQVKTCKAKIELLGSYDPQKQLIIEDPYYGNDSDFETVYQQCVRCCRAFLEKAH
Kind of test: LMPTP phosphatase inhibitors, colorimetric pNPP readout, dose response, orthogonal assay, biochemical, absorbance, pNPP substrate, LMPTP-A isoform, set 2 (AID 743308). The format is functional.

The target of test [25] is T5, Low molecular weight phosphotyrosine protein phosphatase. Kind of test: LMPTP phosphatase inhibitors, dose response, biochemical, OMFP substrate, fluorescence intensity, set 2 (AID 743307). The format is functional.

Sequence of Protein Tat (P04608 whole entry): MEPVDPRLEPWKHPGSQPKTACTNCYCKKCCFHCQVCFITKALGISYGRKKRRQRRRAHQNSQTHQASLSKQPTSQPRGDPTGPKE
Sequence of Nonstructural protein 1 (Q194T2 whole entry): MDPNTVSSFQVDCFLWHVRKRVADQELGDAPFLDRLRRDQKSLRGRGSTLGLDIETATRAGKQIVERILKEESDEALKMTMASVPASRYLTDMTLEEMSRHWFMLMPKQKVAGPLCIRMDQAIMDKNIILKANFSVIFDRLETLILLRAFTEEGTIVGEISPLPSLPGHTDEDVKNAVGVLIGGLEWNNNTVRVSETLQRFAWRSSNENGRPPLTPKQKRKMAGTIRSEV
Sequence of Large T antigen (P03070 whole entry): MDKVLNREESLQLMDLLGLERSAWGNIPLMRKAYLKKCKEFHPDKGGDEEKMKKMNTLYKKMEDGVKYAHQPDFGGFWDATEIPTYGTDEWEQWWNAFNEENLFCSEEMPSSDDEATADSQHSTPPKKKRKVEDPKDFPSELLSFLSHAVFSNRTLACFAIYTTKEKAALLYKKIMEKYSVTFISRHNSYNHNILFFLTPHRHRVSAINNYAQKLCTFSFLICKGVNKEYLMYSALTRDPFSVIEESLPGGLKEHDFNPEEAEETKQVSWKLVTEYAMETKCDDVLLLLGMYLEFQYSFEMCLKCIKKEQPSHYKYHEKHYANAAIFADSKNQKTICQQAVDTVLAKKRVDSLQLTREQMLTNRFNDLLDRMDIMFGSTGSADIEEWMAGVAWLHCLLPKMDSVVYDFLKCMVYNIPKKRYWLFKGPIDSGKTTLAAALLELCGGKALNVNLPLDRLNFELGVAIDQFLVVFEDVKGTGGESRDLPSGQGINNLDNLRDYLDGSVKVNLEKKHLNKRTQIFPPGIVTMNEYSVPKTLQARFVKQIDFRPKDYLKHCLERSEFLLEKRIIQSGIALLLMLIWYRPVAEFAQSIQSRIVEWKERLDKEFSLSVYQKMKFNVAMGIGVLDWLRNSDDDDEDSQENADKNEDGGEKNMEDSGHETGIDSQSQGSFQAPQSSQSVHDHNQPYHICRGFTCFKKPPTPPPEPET
Sequence of 72 kDa type IV collagenase (P08253 whole entry): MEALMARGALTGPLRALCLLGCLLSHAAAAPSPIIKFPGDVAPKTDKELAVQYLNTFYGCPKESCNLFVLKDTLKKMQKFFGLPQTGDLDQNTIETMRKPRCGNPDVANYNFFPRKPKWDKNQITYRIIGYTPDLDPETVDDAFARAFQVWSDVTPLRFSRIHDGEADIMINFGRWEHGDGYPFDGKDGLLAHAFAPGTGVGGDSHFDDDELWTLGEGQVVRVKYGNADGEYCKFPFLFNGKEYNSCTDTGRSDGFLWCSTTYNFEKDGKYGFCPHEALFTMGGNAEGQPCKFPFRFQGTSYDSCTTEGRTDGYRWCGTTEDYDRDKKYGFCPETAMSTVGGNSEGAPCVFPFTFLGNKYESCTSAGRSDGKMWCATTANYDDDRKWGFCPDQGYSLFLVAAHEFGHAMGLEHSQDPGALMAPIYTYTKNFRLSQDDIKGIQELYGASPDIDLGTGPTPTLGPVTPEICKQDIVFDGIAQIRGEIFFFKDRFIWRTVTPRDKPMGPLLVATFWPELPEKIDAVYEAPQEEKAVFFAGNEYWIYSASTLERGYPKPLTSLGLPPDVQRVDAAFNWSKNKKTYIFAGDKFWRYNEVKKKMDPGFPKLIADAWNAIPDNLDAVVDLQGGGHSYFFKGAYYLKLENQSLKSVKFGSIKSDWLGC
Sequence of 26S proteasome non-ATPase regulatory subunit 14 (O00487 whole entry): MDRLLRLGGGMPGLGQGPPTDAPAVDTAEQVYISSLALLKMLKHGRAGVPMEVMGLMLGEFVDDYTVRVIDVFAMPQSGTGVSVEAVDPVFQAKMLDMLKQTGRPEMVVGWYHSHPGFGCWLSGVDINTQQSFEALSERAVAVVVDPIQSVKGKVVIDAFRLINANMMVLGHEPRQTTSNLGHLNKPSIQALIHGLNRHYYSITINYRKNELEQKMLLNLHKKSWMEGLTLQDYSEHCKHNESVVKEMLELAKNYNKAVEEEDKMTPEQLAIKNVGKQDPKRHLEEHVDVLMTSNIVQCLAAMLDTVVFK
Sequence of Mitogen-activated protein kinase 10 (P53779 whole entry): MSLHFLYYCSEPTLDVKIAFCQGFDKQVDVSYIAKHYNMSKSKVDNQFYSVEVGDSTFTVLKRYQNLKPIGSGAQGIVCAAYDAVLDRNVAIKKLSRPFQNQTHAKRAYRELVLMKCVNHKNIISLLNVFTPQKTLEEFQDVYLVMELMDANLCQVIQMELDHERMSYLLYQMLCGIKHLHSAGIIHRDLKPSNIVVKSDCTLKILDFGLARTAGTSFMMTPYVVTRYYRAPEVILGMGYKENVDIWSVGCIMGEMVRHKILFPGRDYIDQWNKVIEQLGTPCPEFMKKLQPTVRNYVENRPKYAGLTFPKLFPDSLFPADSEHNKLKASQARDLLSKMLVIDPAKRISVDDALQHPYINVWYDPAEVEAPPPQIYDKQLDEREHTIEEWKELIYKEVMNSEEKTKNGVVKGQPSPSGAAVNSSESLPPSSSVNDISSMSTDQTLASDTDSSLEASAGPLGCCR

The term EC50 denotes the concentration needed to bring the measured effect to its halfway point. One may read the IC50 as the concentration that gives 50% inhibition. `COC(=O)/C(=C(/F)SCC(C)=O)C(F)(F)F`: the EC50 in [1] and in [3] was > 350 µM (not active) throughout. The IC50 in test [2] is > 100 µM (active).
As for `COc1ccc(CC(=O)Nc2nc(C)cs2)cc1OC`, the IC50 in test [4] is given as 27.9 µM (not active).
Turning to `COc1cccc(-c2cc3nc4c(c(NCC(C)(C)CN(C)C)n3n2)CCCC4)c1`, the EC50 in test [5] was 0.487 µM (active); in test [9], > 60 µM (not active); in test [11], 0.775 µM (active). Further, the IC50 in test [6] was 2.39 µM (active); in test [8], 19.2 µM (active). In addition, the CC50 was 28.9 µM (active) in test [7] and 34.2 µM (active) in test [10].
Turning to `CCCNC(=O)c1ccc2c(c1)C1C3CCC(C3)C1C(c1ccccc1)N2` (stereo not given), the IC50 in test [12] was > 100 µM (active). The CC50 in test [13] was > 40 µM (active).
What is called AC50 is the concentration giving half of the maximal activity seen. For the compound `CCN(CC)c1ccc(/C=C2\C(=O)N(c3nnc(C)c(O)n3)N=C2C)cc1`, the IC50 in [14] is 96 µM (active); in [16] it was 54.1 µM (active); in [17], 12.6 µM (active); in test [19], 42.6 µM (active); in test [21] it was 49.9 µM (active); in test [22], 49.4 µM (active). The IC50 in test [23] is 32.8 µM (inactive). Also, the AC50 in test [15] was 6.6 µM (active). Also, the CC50 in test [18] is 25.6 µM (active). Also, in [20], the EC50 was 2.08 µM (active).
`Cc1ccc2nc(-c3ccccc3)cc(NCCCN3CCCCC3)c2c1`: the IC50 in test [24] and in [25] was > 80 µM (inactive) throughout.

(Values after ChEMBL document CHEMBL1201862, “PubChem BioAssay data set” (2004).)
